Laboratory results: the supplement of paper PMC10307832

Columns and labels:
Experiment in all cases: relative viability (nuclei count vs DMSO), 5 days (fraction); higher = more cells survive
[1] = tested on: NCI-H1563
In short: (§1)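 Lung cancer cell lines in 1536-well plates got either a single drug or a fixed anchor-drug dose together with five library-drug doses (not always all listed) in √10 steps, by pin tool, on the day after seeding. Nuclei were counted after 5 days, and relative viability is the treated-to-vehicle ratio of nuclei counts. Values are medians of duplicate plates.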

[2] = tested on: NCI-H2087
In short: as §1

[3] = tested on: HCC-44
In short: as §1

[4] = tested on: IA-LM
In short: as §1

[5] = tested on: EBC-1
In short: as §1

[6] = tested on: NCI-H322M
In short: as §1

[7] = tested on: A549
In short: as §1

[8] = tested on: NCI-H1703
In short: as §1

[9] = tested on: HCC-78
In short: as §1

[10] = tested on: Calu-6
In short: as §1

[11] = tested on: NCI-H1299
In short: as §1

Cc1cn(-c2cc(NC(=O)c3ccc(C)c(Nc4nccc(-c5cccnc5)n4)c3)cc(C(F)(F)F)c2)cn1 [Nilotinib] + Cc1nc(NC(=O)N2CCC[C@H]2C(N)=O)sc1-c1ccnc(C(C)(C)C(F)(F)F)c1 [Alpelisib] (partner 2 µM)
relative viability ([1]; first compound 0.001 µM): 0.738 | relative viability ([1]; first compound 0.003162 µM): 0.905 | relative viability ([1]; first compound 0.01 µM): 0.839 | relative viability ([1]; first compound 0.03162 µM): 0.849 | relative viability ([1]; first compound 0.1 µM): 0.79 | relative viability ([2]; first compound 0.001 µM): 0.831 | relative viability ([2]; first compound 0.003162 µM): 1.08 | relative viability ([2]; first compound 0.01 µM): 1.23 | relative viability ([2]; first compound 0.03162 µM): 0.938 | relative viability ([2]; first compound 0.1 µM): 0.794 | relative viability ([3]; first compound 0.001 µM): 0.708 | relative viability ([3]; first compound 0.003162 µM): 0.939 | relative viability ([3]; first compound 0.01 µM): 0.898 | relative viability ([3]; first compound 0.03162 µM): 0.59 | relative viability ([3]; first compound 0.1 µM): 0.74 | relative viability ([4]; first compound 0.001 µM): 0.653 | relative viability ([4]; first compound 0.003162 µM): 0.679 | relative viability ([4]; first compound 0.01 µM): 0.781 | relative viability ([4]; first compound 0.03162 µM): 0.606 | relative viability ([4]; first compound 0.1 µM): 0.963 | relative viability ([5]; first compound 0.001 µM): 0.787 | relative viability ([5]; first compound 0.003162 µM): 0.796 | relative viability ([5]; first compound 0.01 µM): 0.811 | relative viability ([5]; first compound 0.03162 µM): 0.566 | relative viability ([5]; first compound 0.1 µM): 0.689 | relative viability ([6]; first compound 0.001 µM): 0.882 | relative viability ([6]; first compound 0.003162 µM): 0.817 | relative viability ([6]; first compound 0.03162 µM): 0.72 | relative viability ([6]; first compound 0.1 µM): 0.866 | relative viability ([7]; first compound 0.001 µM): 0.721 | relative viability ([7]; first compound 0.003162 µM): 0.817 | relative viability ([7]; first compound 0.01 µM): 1.02 | relative viability ([7]; first compound 0.03162 µM): 0.543 | relative viability ([7]; first compound 0.1 µM): 0.649 | relative viability ([8]; first compound 0.001 µM): 0.338 | relative viability ([8]; first compound 0.003162 µM): 0.249 | relative viability ([8]; first compound 0.01 µM): 0.171 | relative viability ([8]; first compound 0.03162 µM): 0.166 | relative viability ([8]; first compound 0.1 µM): 0.175 | relative viability ([9]; first compound 0.001 µM): 0.347 | relative viability ([9]; first compound 0.003162 µM): 0.381 | relative viability ([9]; first compound 0.01 µM): 0.444 | relative viability ([9]; first compound 0.03162 µM): 0.34 | relative viability ([9]; first compound 0.1 µM): 0.382 | relative viability ([10]; first compound 0.001 µM): 1.11 | relative viability ([10]; first compound 0.01 µM): 1.03 | relative viability ([10]; first compound 0.03162 µM): 0.989 | relative viability ([10]; first compound 0.1 µM): 0.958

CN1CCN(CCOc2cc(OC3CCOCC3)c3c(Nc4c(Cl)ccc5c4OCO5)ncnc3c2)CC1 [Saracatinib] + CC1(C)CCC(c2ccc(Cl)cc2)=C(CN2CCN(c3ccc(C(=O)NS(=O)(=O)c4ccc(N[C@H](CCN5CCOCC5)CSc5ccccc5)c(S(=O)(=O)C(F)(F)F)c4)cc3)CC2)C1 [Navitoclax] (partner 0.5 µM)
relative viability ([2]; first compound 0.02 µM): 1.03 | relative viability ([2]; first compound 0.2 µM): 1.04 | relative viability ([2]; first compound 0.6325 µM): 1.14 | relative viability ([2]; first compound 2 µM): 1.05 | relative viability ([11]; first compound 0.02 µM): 1.01 | relative viability ([11]; first compound 0.2 µM): 1.06 | relative viability ([11]; first compound 0.6325 µM): 1.04 | relative viability ([11]; first compound 2 µM): 1.04 | relative viability ([3]; first compound 0.02 µM): 1.06 | relative viability ([3]; first compound 0.2 µM): 0.829 | relative viability ([3]; first compound 0.6325 µM): 1.08 | relative viability ([3]; first compound 2 µM): 1.04 | relative viability ([4]; first compound 0.02 µM): 0.865 | relative viability ([4]; first compound 0.6325 µM): 1.45 | relative viability ([4]; first compound 2 µM): 1 | relative viability ([5]; first compound 0.02 µM): 0.542 | relative viability ([5]; first compound 0.2 µM): 0.408 | relative viability ([5]; first compound 0.6325 µM): 0.393 | relative viability ([5]; first compound 2 µM): 0.43 | relative viability ([6]; first compound 0.02 µM): 1.28 | relative viability ([6]; first compound 0.2 µM): 1.29 | relative viability ([6]; first compound 0.6325 µM): 1.31 | relative viability ([6]; first compound 2 µM): 1.13 | relative viability ([7]; first compound 0.02 µM): 1.42 | relative viability ([7]; first compound 0.2 µM): 0.903 | relative viability ([7]; first compound 0.6325 µM): 1.39 | relative viability ([7]; first compound 2 µM): 1.38 | relative viability ([8]; first compound 0.02 µM): 1.09 | relative viability ([8]; first compound 0.2 µM): 0.904 | relative viability ([8]; first compound 0.6325 µM): 0.43 | relative viability ([8]; first compound 2 µM): 0.269 | relative viability ([9]; first compound 0.02 µM): 0.733 | relative viability ([9]; first compound 0.2 µM): 0.779 | relative viability ([9]; first compound 0.6325 µM): 1.08 | relative viability ([9]; first compound 2 µM): 0.875 | relative viability ([10]; first compound 0.02 µM): 0.914 | relative viability ([10]; first compound 0.2 µM): 0.746 | relative viability ([10]; first compound 0.6325 µM): 0.731 | relative viability ([10]; first compound 2 µM): 0.562

CN1CCN(CCOc2cc(OC3CCOCC3)c3c(Nc4c(Cl)ccc5c4OCO5)ncnc3c2)CC1 [Saracatinib] + CC(C)C[C@H](NC(=O)[C@H](Cc1ccccc1)NC(=O)c1cnccn1)B(O)O [Bortezomib] (partner 0.002 µM)
relative viability ([1]; first compound 0.02 µM): 0.857 | relative viability ([1]; first compound 0.2 µM): 0.713 | relative viability ([1]; first compound 0.6325 µM): 0.707 | relative viability ([1]; first compound 2 µM): 0.712 | relative viability ([2]; first compound 0.02 µM): 0.87 | relative viability ([2]; first compound 0.2 µM): 0.608 | relative viability ([2]; first compound 0.6325 µM): 0.856 | relative viability ([2]; first compound 2 µM): 0.711 | relative viability ([11]; first compound 0.02 µM): 1.05 | relative viability ([11]; first compound 0.2 µM): 1.03 | relative viability ([11]; first compound 0.6325 µM): 1.01 | relative viability ([11]; first compound 2 µM): 1.09 | relative viability ([3]; first compound 0.02 µM): 0.917 | relative viability ([3]; first compound 0.2 µM): 0.78 | relative viability ([3]; first compound 0.6325 µM): 0.93 | relative viability ([3]; first compound 2 µM): 1.02 | relative viability ([4]; first compound 0.02 µM): 0.87 | relative viability ([4]; first compound 0.6325 µM): 1.31 | relative viability ([4]; first compound 2 µM): 0.909 | relative viability ([5]; first compound 0.02 µM): 0.553 | relative viability ([5]; first compound 0.2 µM): 0.484 | relative viability ([5]; first compound 0.6325 µM): 0.628 | relative viability ([5]; first compound 2 µM): 0.531 | relative viability ([6]; first compound 0.02 µM): 1.23 | relative viability ([6]; first compound 0.2 µM): 1.14 | relative viability ([6]; first compound 0.6325 µM): 1.23 | relative viability ([6]; first compound 2 µM): 0.988 | relative viability ([8]; first compound 0.02 µM): 0.304 | relative viability ([8]; first compound 0.2 µM): 0.314 | relative viability ([8]; first compound 0.6325 µM): 0.293 | relative viability ([8]; first compound 2 µM): 0.22 | relative viability ([9]; first compound 0.02 µM): 0.505 | relative viability ([9]; first compound 0.2 µM): 0.513 | relative viability ([9]; first compound 0.6325 µM): 0.583 | relative viability ([9]; first compound 2 µM): 0.357 | relative viability ([10]; first compound 0.02 µM): 0.939 | relative viability ([10]; first compound 0.2 µM): 0.796 | relative viability ([10]; first compound 0.6325 µM): 0.807 | relative viability ([10]; first compound 2 µM): 0.656
